How the values were obtained:
Assay type in all cases: in vivo
[1] = system: Alopecurus myosuroides; test: Pre-emergence test, weed control; details: 3 weeks after treatment, rating 0-100 (100=death), Table 1
In short: (§1)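 Herbicidal effect was scored visually on a 0–100 scale (100 = death, 0 = untreated-like) three weeks after treatment. Soil was horticultural loam sprayed just after sowing with aqueous-diluted acetone/0.4% TRITON X-155 formulations at 15–240 g a.i./ha (900 L/ha).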

[2] = system: Apera spica-venti; test: Pre-emergence test, weed control; details: 3 weeks after treatment, rating 0-100 (100=death), Table 1
In short: as §1

[3] = system: Galium aparine; test: Pre-emergence test, weed control; details: 3 weeks after treatment, rating 0-100 (100=death), Table 1
In short: as §1

[4] = system: Lamium purpureum; test: Pre-emergence test, weed control; details: 3 weeks after treatment, rating 0-100 (100=death), Table 1
In short: as §1

[5] = system: Lolium perenne; test: Pre-emergence test, weed control; details: 3 weeks after treatment, rating 0-100 (100=death), Table 1
In short: as §1

[6] = system: Matricaria inodora; test: Pre-emergence test, weed control; details: 3 weeks after treatment, rating 0-100 (100=death), Table 1
In short: as §1

[7] = system: Poa annua; test: Pre-emergence test, weed control; details: 3 weeks after treatment, rating 0-100 (100=death), Table 1
In short: as §1

[8] = system: Polygonum convolvulus; test: Pre-emergence test, weed control; details: 3 weeks after treatment, rating 0-100 (100=death), Table 1
In short: as §1

[9] = system: Setaria viridis; test: Pre-emergence test, weed control; details: 3 weeks after treatment, rating 0-100 (100=death), Table 1
In short: as §1

[10] = system: Stellaria media; test: Pre-emergence test, weed control; details: 3 weeks after treatment, rating 0-100 (100=death), Table 1
In short: as §1

[11] = system: Veronica persica; test: Pre-emergence test, weed control; details: 3 weeks after treatment, rating 0-100 (100=death), Table 1
In short: as §1

[12] = system: HORVW; test: Pre-emergence test, selectivity; details: 3 weeks after treatment, rating 0-100 (100=death), Table 2
In short: as §1

[13] = system: Hordeum vulgare variety “Mammut”; test: Pre-emergence test, selectivity; details: 3 weeks after treatment, rating 0-100 (100=death), Table 2
In short: as §1

[14] = system: Triticum aestivum variety “Kanzler”; test: Pre-emergence test, selectivity; details: 3 weeks after treatment, rating 0-100 (100=death), Table 2
In short: as §1

[15] = system: Triticum aestivum variety “Monopol”; test: Pre-emergence test, selectivity; details: 3 weeks after treatment, rating 0-100 (100=death), Table 2
In short: as §1

[16] = system: Galium aparine; test: Post-emergence test, weed control; details: 2–4 weeks after treatment, rating 0-100 (100=death), Table 5
Procedure: (§2) These acetone solutions are diluted with water and the resulting formulations applied at dosage levels equivalent of about 0.030 to 0.240 kg per hectare of test compound per pot. After spraying the plants are placed an greenhouse benches and are cared for in the usual manner, commensurate with conventional greenhouse practices. From 2 to 4 weeks after treatment, the seedling plants are examined and rated according to the rating system provided above. A rating 0 indicates growth as untreated control, a rating 100 indicates death.

[17] = system: Lamium purpureum; test: Post-emergence test, weed control; details: 2–4 weeks after treatment, rating 0-100 (100=death), Table 5
Procedure: as §2

[18] = system: Stellaria media; test: Post-emergence test, weed control; details: 2–4 weeks after treatment, rating 0-100 (100=death), Table 5
Procedure: as §2

[19] = system: VIOAR; test: Post-emergence test, weed control; details: 2–4 weeks after treatment, rating 0-100 (100=death), Table 5
Procedure: as §2

`Cc1cnc(-c2ccc(C(F)(F)F)cc2)nc1Oc1cccc(C(F)(F)F)c1` [REF-1] was tested, and the “ALOMY weed control rating” value ([1]; 0.015 kg/ha) was 65, the “ALOMY weed control rating” value ([1]; 0.030 kg/ha) was 92 and the “ALOMY weed control rating” value ([1]; 0.060 kg/ha) was 100. The “ALOMY weed control rating” value ([1]; 0.1 kg/ha) was 100, the “ALOMY weed control rating” value ([1]; 0.240 kg/ha) was 100 and the “APESV weed control rating” value ([2]; 0.015 kg/ha) was 100. The “APESV weed control rating” value ([2]; 0.030 kg/ha) was 100, the “APESV weed control rating” value ([2]; 0.060 kg/ha) was 100 and the “APESV weed control rating” value ([2]; 0.1 kg/ha) was 100. The “APESV weed control rating” value ([2]; 0.240 kg/ha) was 100, the “GALAP weed control rating” value ([3]; 0.015 kg/ha) was 5 and the “GALAP weed control rating” value ([3]; 0.030 kg/ha) was 15. The “GALAP weed control rating” value ([3]; 0.060 kg/ha) was 50, the “GALAP weed control rating” value ([3]; 0.1 kg/ha) was 75 and the “GALAP weed control rating” value ([3]; 0.240 kg/ha) was 95. For the same molecule, the “LAMPU weed control rating” value ([4]; 0.015 kg/ha) was 100, the “LAMPU weed control rating” value ([4]; 0.030 kg/ha) was 100 and the “LAMPU weed control rating” value ([4]; 0.060 kg/ha) was 100. The “LAMPU weed control rating” value ([4]; 0.1 kg/ha) was 100, the “LAMPU weed control rating” value ([4]; 0.240 kg/ha) was 100 and the “LOLPE weed control rating” value ([5]; 0.015 kg/ha) was 80. The “LOLPE weed control rating” value ([5]; 0.030 kg/ha) was 95, the “LOLPE weed control rating” value ([5]; 0.060 kg/ha) was 99 and the “LOLPE weed control rating” value ([5]; 0.1 kg/ha) was 100. The “LOLPE weed control rating” value ([5]; 0.240 kg/ha) was 100, the “MATIN weed control rating” value ([6]; 0.015 kg/ha) was 99 and the “MATIN weed control rating” value ([6]; 0.030 kg/ha) was 99. The “MATIN weed control rating” value ([6]; 0.060 kg/ha) was 100, the “MATIN weed control rating” value ([6]; 0.1 kg/ha) was 100 and the “MATIN weed control rating” value ([6]; 0.240 kg/ha) was 100. For the same molecule, the “POAAN weed control rating” value ([7]; 0.015 kg/ha) was 98, the “POAAN weed control rating” value ([7]; 0.030 kg/ha) was 100 and the “POAAN weed control rating” value ([7]; 0.060 kg/ha) was 100. For the same molecule, the “POAAN weed control rating” value ([7]; 0.1 kg/ha) was 100, the “POAAN weed control rating” value ([7]; 0.240 kg/ha) was 100 and the “POLCO weed control rating” value ([8]; 0.015 kg/ha) was 92. For the same molecule, the “POLCO weed control rating” value ([8]; 0.030 kg/ha) was 93, the “POLCO weed control rating” value ([8]; 0.060 kg/ha) was 100 and the “POLCO weed control rating” value ([8]; 0.1 kg/ha) was 100. The “POLCO weed control rating” value ([8]; 0.240 kg/ha) was 100, the “SETVI weed control rating” value ([9]; 0.015 kg/ha) was 93 and the “SETVI weed control rating” value ([9]; 0.030 kg/ha) was 100. The “SETVI weed control rating” value ([9]; 0.060 kg/ha) was 100, the “SETVI weed control rating” value ([9]; 0.1 kg/ha) was 100 and the “SETVI weed control rating” value ([9]; 0.240 kg/ha) was 100. For the same molecule, the “STEME weed control rating” value ([10]; 0.030 kg/ha) was 90, the “STEME weed control rating” value ([10]; 0.060 kg/ha) was 100 and the “STEME weed control rating” value ([10]; 0.1 kg/ha) was 100. For the same molecule, the “STEME weed control rating” value ([10]; 0.240 kg/ha) was 100, the “VERPE weed control rating” value ([11]; 0.015 kg/ha) was 100 and the “VERPE weed control rating” value ([11]; 0.030 kg/ha) was 100. For the same molecule, the “VERPE weed control rating” value ([11]; 0.060 kg/ha) was 100, the “VERPE weed control rating” value ([11]; 0.1 kg/ha) was 100 and the “VERPE weed control rating” value ([11]; 0.240 kg/ha) was 100. The “HORVW rating (Selectivity)” value ([12]; 0.015 kg/ha) was 35, the “HORVW rating (Selectivity)” value ([12]; 0.030 kg/ha) was 45 and the “HORVW rating (Selectivity)” value ([12]; 0.060 kg/ha) was 55. For the same molecule, the “HORVW rating (Selectivity)” value ([12]; 0.120 kg/ha) was 60, the “HORVW rating (Selectivity)” value ([12]; 0.240 kg/ha) was 65 and the “HORVWM rating (Selectivity)” value ([13]; 0.015 kg/ha) was 25. The “HORVWM rating (Selectivity)” value ([13]; 0.030 kg/ha) was 45, the “HORVWM rating (Selectivity)” value ([13]; 0.060 kg/ha) was 45 and the “HORVWM rating (Selectivity)” value ([13]; 0.120 kg/ha) was 60. The “HORVWM rating (Selectivity)” value ([13]; 0.240 kg/ha) was 65, the “TRZAWK rating (Selectivity)” value ([14]; 0.015 kg/ha) was 3 and the “TRZAWK rating (Selectivity)” value ([14]; 0.030 kg/ha) was 10. The “TRZAWK rating (Selectivity)” value ([14]; 0.060 kg/ha) was 25, the “TRZAWK rating (Selectivity)” value ([14]; 0.120 kg/ha) was 25 and the “TRZAWK rating (Selectivity)” value ([14]; 0.240 kg/ha) was 40. The “TRZAWM rating (Selectivity)” value ([15]; 0.015 kg/ha) was 3, the “TRZAWM rating (Selectivity)” value ([15]; 0.030 kg/ha) was 12 and the “TRZAWM rating (Selectivity)” value ([15]; 0.060 kg/ha) was 25. For the same molecule, the “TRZAWM rating (Selectivity)” value ([15]; 0.120 kg/ha) was 30, the “TRZAWM rating (Selectivity)” value ([15]; 0.240 kg/ha) was 45 and the “GALAP weed control rating” value ([16]; 0.030 kg/ha) was 80. For the same molecule, the “GALAP weed control rating” value ([16]; 0.060 kg/ha) was 85, the “GALAP weed control rating” value ([16]; 0.120 kg/ha) was 92 and the “GALAP weed control rating” value ([16]; 0.240 kg/ha) was 92. For the same molecule, the “LAMPU weed control rating” value ([17]; 0.030 kg/ha) was 93, the “LAMPU weed control rating” value ([17]; 0.060 kg/ha) was 93 and the “LAMPU weed control rating” value ([17]; 0.120 kg/ha) was 93. For the same molecule, the “LAMPU weed control rating” value ([17]; 0.240 kg/ha) was 93, the “STEME weed control rating” value ([18]; 0.030 kg/ha) was 80 and the “STEME weed control rating” value ([18]; 0.060 kg/ha) was 90. The “STEME weed control rating” value ([18]; 0.120 kg/ha) was 92, the “STEME weed control rating” value ([18]; 0.240 kg/ha) was 92 and the “VIOAR weed control rating” value ([19]; 0.030 kg/ha) was 92. The “VIOAR weed control rating” value ([19]; 0.060 kg/ha) was 93, the “VIOAR weed control rating” value ([19]; 0.120 kg/ha) was 93 and the “VIOAR weed control rating” value ([19]; 0.240 kg/ha) was 95.

Source: US7008905B2, “Method of combating undesired plant growth on cereals” (BASF Aktiengesellschaft, priority 2000, dated 2006)
